Reference: PubChem BioAssay AID1996
Converted amounts (≈) assume the structure as drawn. “And” between values parts separate entries of the source, which are not always exact repeats. Equal entries are not always repeated.

Settings: buffer; pH 7.4; 200.0 µM
Work on O=C(O)/C=C\C(=O)O.c1ccc(Sc2ccccc2CN2CCCC2)cc1 yielded a solubility kinetic greater than 57.8 µg/mL.
With COc1cc(C(=O)N2CCc3ccccc32)cc(OC)c1OC the solubility kinetic was 40.8 µg/mL (≈ 130 µM).
In the case of O=[N+]([O-])c1ccc(NCc2ccccc2N2CCC(CO)CC2)nc1, the solubility kinetic is reported as 12.4 µg/mL (≈ 36.2 µM).
COC(=O)c1ccc(NC(=S)NCCCN2CCCC2=O)cc1 showed a solubility kinetic greater than 50.3 µg/mL.
CC(C)(C)c1ccc(/C=C/C(=O)NCCCn2ccnc2)cc1 showed a solubility kinetic of 46.1 µg/mL (≈ 148 µM).
With COc1ccc(C2NC(=O)CCC2[N+](=O)[O-])cc1OC (stereo unspecified) the solubility kinetic was greater than 42 µg/mL.
In the case of Cc1c(NC(=O)c2ccc(S(=O)(=O)Nc3ccccc3F)cc2)c(=O)n(-c2ccccc2)n1C, the solubility kinetic is reported as greater than 72.1 µg/mL.
CCN(CC(=O)Nc1ccc(NC(C)=O)cc1)C(=O)c1ccc(=O)[nH]c1 gave a solubility kinetic of 50.4 µg/mL (≈ 141 µM).
Compound c1csc(-c2noc(CN3CCOCC3)n2)c1 has a solubility kinetic of 36.6 µg/mL (≈ 146 µM).
With Cn1cnc(S(=O)(=O)Nc2ccc3c(c2)OCCO3)c1 the solubility kinetic was 30.2 µg/mL (≈ 102 µM).
Compound O=S(=O)(NCC1CCCO1)c1ccc(Cl)nc1 (stereo unspecified) has a solubility kinetic greater than 41.5 µg/mL.
Cl.O=[N+]([O-])c1ccccc1OCCCN1CCc2ccccc2C1 showed a solubility kinetic greater than 52.3 µg/mL.
For O=C(O)c1cccc(NC(=O)c2ccccc2NC(=O)c2ccco2)c1, the solubility kinetic was greater than 52.5 µg/mL.
With N#Cc1ccc(NC(=O)c2cc(=O)c3ccccc3o2)cc1 the solubility kinetic was 0.8 µg/mL (≈ 2.76 µM).
For CC(C)Sc1ccc([N+](=O)[O-])cc1C(=O)Nc1ccncc1, the solubility kinetic was 40.8 µg/mL (≈ 129 µM).
With Cc1ccc(O)c(NC(=O)C2CCCCC2)c1 the solubility kinetic was 33.3 µg/mL (≈ 143 µM).
Work on CCOC(=O)CN1C(=O)S/C(=C/c2ccc(C)o2)C1=O yielded a solubility kinetic of 29.2 µg/mL (≈ 98.9 µM).
Work on COc1cc2c(cc1OC)C(COc1ccc(F)cc1)NCC2 (stereo unspecified) yielded a solubility kinetic of 43.8 µg/mL (≈ 138 µM).
Compound C/C(=N\O)c1noc(C)c1C(=O)Nc1nccs1 has a solubility kinetic of 2 µg/mL (≈ 7.51 µM).
In the case of CCCN(CC(=O)Nc1ccccc1OC)C(=O)c1ccccn1, the solubility kinetic is reported as greater than 49.1 µg/mL.
O=C(Cc1cccs1)NC(Cc1c[nH]c2ccccc12)C(=O)O (stereo unspecified) gave a solubility kinetic greater than 49.3 µg/mL.
O=C(Nc1ccccc1[N+](=O)[O-])C1(c2ccccc2)CCOCC1 gave a solubility kinetic of 42.3 µg/mL (≈ 130 µM).
For Cc1ccc2cc(C)c(SCC(=O)Nc3cc(C)on3)nc2c1, the solubility kinetic was less than 0.2 µg/mL.
With COc1cccc2cc(C(N)=O)oc12 the solubility kinetic was greater than 28.7 µg/mL.
CC1(C)Cc2cccc(C(=O)NCc3ccco3)c2O1 showed a solubility kinetic of 32.9 µg/mL (≈ 121 µM).
Cc1ccc(S(=O)(=O)NCc2ccncc2)cc1C showed a solubility kinetic greater than 41.5 µg/mL.
With O=C(CN1C(=O)NC(c2ccccc2)(c2ccccc2)C1=O)NCCc1ccc(F)cc1 the solubility kinetic was 7.6 µg/mL (≈ 17.6 µM).
With Cc1cccc(CC(=O)Nc2cccnc2)c1 the solubility kinetic was 31 µg/mL (≈ 137 µM).
Compound CSCCC1NC(=O)N(CC(=O)Nc2ccc(Cl)c(S(=O)(=O)N3CCOCC3)c2)C1=O (stereo unspecified) has a solubility kinetic greater than 73.6 µg/mL.
With COc1cccc(CSc2nccn2C)c1 the solubility kinetic was greater than 35.1 µg/mL.
Nc1c(C(=O)Nc2ccccc2)c2nc3ccccc3nc2n1-c1ccc(O)cc1 showed a solubility kinetic of 0.7 µg/mL (≈ 1.77 µM).
COc1ccc(CC(=O)Nc2cccc3c2CCCC3)cc1 showed a solubility kinetic of 1.8 µg/mL (≈ 6.09 µM).
For Cc1c(C(=O)Cc2ccccc2)n(C)c2ccccc12, the solubility kinetic was 2.5 µg/mL (≈ 9.49 µM).
With CNCCCC12CCC(c3ccccc31)c1ccccc12.Cl the solubility kinetic was 45.8 µg/mL and > 47.1 µg/mL.
For CC(=O)NC1C(=O)N(Cc2ccccc2)c2ccc(Br)cc21 (stereo unspecified), the solubility kinetic was 18 µg/mL (≈ 50.1 µM).
Work on O=C(Oc1c(-c2ccccc2)c(=O)n2c3c(cccc13)CC2)c1ccccc1 yielded a solubility kinetic of 4.8 µg/mL (≈ 13.1 µM).
CC(C)C(O)(C#CCN1CCCCCC1)c1ccccc1.Cl (stereo unspecified) gave a solubility kinetic greater than 48.3 µg/mL.
Compound COC(=O)CC(NC(=O)C1CC1)c1ccc2c(c1)OCO2 (stereo unspecified) has a solubility kinetic greater than 43.7 µg/mL.
Cc1ccc(C)c(-c2csc(-c3cccnc3)n2)c1 showed a solubility kinetic of 9.9 µg/mL (≈ 37.2 µM).
O=c1c2c([nH]c3ccccc13)CCCCC2 showed a solubility kinetic greater than 32 µg/mL.
COc1ccc(OCCSc2nc(C)nc3ccccc23)cc1 showed a solubility kinetic of 0.6 µg/mL (≈ 1.84 µM).
COc1cccc(CNc2ccccn2)c1O gave a solubility kinetic greater than 34.5 µg/mL.
Compound CCOC(=O)C1CCCN(Cc2nc(C3CC3)no2)C1 (stereo unspecified) has a solubility kinetic of 36.5 µg/mL (≈ 131 µM).
In the case of COCCn1c(SCC(=O)N2CCOCC2)nnc1-c1ccco1, the solubility kinetic is reported as greater than 52.9 µg/mL.
In the case of Cn1nccc1C(=O)N1CCN(c2ccccc2Cl)CC1, the solubility kinetic is reported as greater than 45.7 µg/mL.
Work on N#Cc1c(-c2ccccc2)[nH]c(=O)[nH]c1=O yielded a solubility kinetic greater than 32 µg/mL.
CC(=Nc1ccccc1N)c1c(O)n(C)c(=O)n(C)c1=O showed a solubility kinetic of 3.6 µg/mL (≈ 12.5 µM).
With Cc1ccc(C)c(NC(=O)CN(C)C(=O)C2CCCC2)c1 the solubility kinetic was greater than 43.3 µg/mL.
In the case of Cc1ccc(C(=O)NCC(=O)OCC(=O)c2ccccc2)s1, the solubility kinetic is reported as greater than 47.6 µg/mL.
Work on CCC(Oc1ccccc1)C(=O)Nc1ncc([N+](=O)[O-])s1 (stereo unspecified) yielded a solubility kinetic greater than 46.1 µg/mL.
Compound COc1ccc(CNc2ncnc3sccc23)cc1 has a solubility kinetic greater than 40.7 µg/mL.
For O=C(O)c1ccc(/C=N/O)cc1, the solubility kinetic was greater than 24.8 µg/mL.
With CCCCC(=O)Nc1ccccc1CC the solubility kinetic was greater than 30.8 µg/mL.
In the case of O=Cc1cn(CC(=O)Nc2ccccc2)c2ccccc12, the solubility kinetic is reported as 4.1 µg/mL (≈ 14.7 µM).
O=c1[nH]c2cccnc2n1-c1ccc([N+](=O)[O-])cc1 gave a solubility kinetic of 13.3 µg/mL (≈ 51.9 µM).
In the case of Cc1ccccc1NC(=O)CSc1nnc(-c2ccccn2)o1, the solubility kinetic is reported as greater than 49 µg/mL.
O=C(Cc1ccsc1)NCC(=O)Nc1ccc(F)c(F)c1 gave a solubility kinetic greater than 46.5 µg/mL.
Compound Cc1cc(NCc2cccnc2)nc(N)n1 has a solubility kinetic greater than 32.3 µg/mL.
In the case of COc1ccc(CNC(=S)Nc2cccc(F)c2)cc1, the solubility kinetic is reported as 14.6 µg/mL (≈ 50.3 µM).
For COc1ccccc1OCC(=O)Nc1nc2c(s1)CCCC2, the solubility kinetic was 8 µg/mL (≈ 25.1 µM).
Compound Cc1cccc(C)c1OCC(=O)Nc1ccc(N2CCOCC2)cc1 has a solubility kinetic of 6 µg/mL (≈ 17.6 µM).
